Test results as given in article PMC8015227, “Understanding the Metabolism of Proteolysis Targeting Chimeras (PROTACs): The Next Step toward Pharmaceutical Applications” (Journal of Medicinal Chemistry, 2020).
Like-named read-outs stand apart in the source and are kept apart here.

Test: Metabolic stability in cryopreserved human hepatocytes
Assay type: in vitro ADME
Settings: human, cryopreserved human hepatocytes (pooled, suspension)
[1] = Figures 3-5, cryopreserved human hepatocytes, read-out: half-life (t1/2)
[2] = Table S1, PROTACs, cryopreserved human hepatocytes, read-out: t1/2
[3] = supplement CSV, human hepatocytes, read-out: HLH t1/2

Description: Cryopreserved human hepatocytes (pooled suspension hepatocytes, Gibco) were thawed placing in a 37 °C shaking water bath according to the manufacturer’s specifications and resuspended in Williams E medium (WEM) to have 1 × 10^6 cells/mL. Samples with the test compound at 1 μM were incubated at 37 °C, and aliquots of 50 μL were collected at 0, 10, 30, 60, 120, and 240 min. The incubations were quenched 1:3 with ice-cold acetonitrile (containing 1 μM labetalol as the internal standard). Samples were then centrifuged at 12000 rpm for 5 min at 4 °C. The supernatant was concentrated by evaporation under a nitrogen stream and reconstituted with DMSO. Blank was prepared similarly but in the absence of the investigated compounds.
A Thermo Q-exactive mass spectrometer (Thermo Fisher Scientific, Waltham, MA) was used. The LC system, governed by Chromeleon X-press software, consists of a Binary pump, a thermostated autosampler, and a column compartment, all Dionex Ultimate 3000 series modules (Thermo Fisher Scientific, Waltham, MA). A volume of 2 μL was injected for each sample. Chromatographic separation of analytes was conducted in reverse-phase chromatography. In brief, a Luna Omega 1.6 μm Polar (C18, 2.1 mm × 150 mm) was used, and the mobile phases consisted of water (A) and acetonitrile (B), both containing formic acid at 0.1%. The LC flow was set at 0.400 mL/min in a 12 min gradient elution as follows: 99.5:0.5 (A/B) to 5:95 (A/B) over 10 min, 5:95 (A/B) for 2 min, and then reversion back to 99.5:0.5 (A/B) over 2.5 min. The column was operating at a constant temperature of 40 °C.

Row | Structure (SMILES) | half-life at 1 µM [1] [h] | half-life at 1 µM [2] [h] | half-life at 1 µM [3] [h]
1 | Cc1sc2c(c1C)C(c1ccc(Cl)cc1)=N[C@@H](CC(=O)Nc1ccc(OCCOCCOCCOCCNc3cccc4c3C(=O)N(C3CCC(=O)NC3=O)C4=O)cc1)c1nnc(C)n1-2 (stereo partly shown) [Compound 3, ARV-825, reference compound] | – | 0.462 | 0.462
2 | Cc1sc2c(c1C)C(c1ccc(Cl)cc1)=N[C@@H](CC(=O)NCCCN1CCN(CCCNc3cccc4c3C(=O)N(C3CCC(=O)NC3=O)C4=O)CC1)c1nnc(C)n1-2 (stereo partly drawn) [Compound 6, 2-((S)-4-(4-Chlorophenyl)-2,3,9-trimethyl-6H-thieno[3,2-f][1,2,4]triazolo[4,3-a][1,4]diazepin-6-yl)-N-(3-(4-(3-((2-(2,6-dioxopiperidin-3-yl)-1,3-dioxoisoindolin-4-yl)amino)propyl)piperazin-1-yl)propyl)acetamide] | 1.45 | 1.45 | 1.45
3 | Cc1ncsc1-c1ccc(CNC(=O)[C@@H]2C[C@@H](O)CN2C(=O)[C@@H](NC(=O)COCCOCCOCCNC(=O)C[C@@H]2N=C(c3ccc(Cl)cc3)c3c(sc(C)c3C)-n3c(C)nnc32)C(C)(C)C)cc1 [Compound 7, MZ1, reference compound] | – | 3.5 | 3.5
4 | Cc1ncsc1-c1ccc([C@H](C)NC(=O)[C@@H]2C[C@@H](O)CN2C(=O)[C@@H](NC(=O)CCCCCCNC(=O)C[C@@H]2N=C(c3ccc(Cl)cc3)c3c(sc(C)c3C)-n3c(C)nnc32)C(C)(C)C)cc1 [Compound 8, (2S,4R)-1-((S)-2-(7-(2-((S)-4-(4-Chlorophenyl)-2,3,9-trimethyl-6H-thieno[3,2-f][1,2,4]triazolo[4,3-a][1,4]diazepin-6-yl)acetamido)heptanamido)-3,3-dimethylbutanoyl)-4-hydroxy-N-((S)-1-(4-(4-methylthiazol-5-yl)phenyl)ethyl)pyrrolidine-2-carboxamide] | – | 1.36 | 1.36
5 | Cc1ncsc1-c1ccc([C@H](C)NC(=O)[C@@H]2C[C@@H](O)CN2C(=O)[C@@H](NC(=O)COCCOCCNC(=O)C[C@@H]2N=C(c3ccc(Cl)cc3)c3c(sc(C)c3C)-n3c(C)nnc32)C(C)(C)C)cc1 [Compound 9, (2S,4R)-1-((S)-2-(tert-Butyl)-14-((S)-4-(4-chlorophenyl)-2,3,9-trimethyl-6H-thieno[3,2-f][1,2,4]triazolo[4,3-a][1,4]diazepin-6-yl)-4,13-dioxo-6,9-dioxa-3,12-diazatetradecanoyl)-4-hydroxy-N-((S)-1-(4-(4-methylthiazol-5-yl)phenyl)ethyl)pyrrolidine-2-carboxamide] | – | 2.28 | 2.28
6 | Cc1ncsc1-c1ccc([C@H](C)NC(=O)[C@@H]2C[C@@H](O)CN2C(=O)[C@@H](NC(=O)COCCCOCCNC(=O)C[C@@H]2N=C(c3ccc(Cl)cc3)c3c(sc(C)c3C)-n3c(C)nnc32)C(C)(C)C)cc1 [Compound 10, ARV-771, reference compound] | – | 2.52 | 2.52
7 | Cc1ncsc1-c1ccc([C@H](C)NC(=O)[C@@H]2C[C@@H](O)CN2C(=O)[C@@H](NC(=O)CN2CCN(C(=O)c3ccc4c(c3)nc(Nc3cccc(Cl)c3)c3ccncc34)CC2)C(C)(C)C)cc1 [Compound 20, (2S,4R)-1-((S)-2-(2-(4-(5-((3-Chlorophenyl)amino)benzo[c][2,6]naphthyridine-8-carbonyl)piperazin-1-yl)acetamido)-3,3-dimethylbutanoyl)-4-hydroxy-N-((S)-1-(4-(4-methylthiazol-5-yl)phenyl)ethyl)pyrrolidine-2-carboxamide] | 3.63 | 3.63 | 3.63
8 | Cc1ncsc1-c1ccc([C@H](C)NC(=O)[C@@H]2C[C@@H](O)CN2C(=O)[C@@H](NC(=O)CCCCCCCCCCC(=O)N2CCN(C(=O)c3cc(Cc4n[nH]c(=O)c5ccccc45)ccc3F)CC2)C(C)(C)C)cc1 [Compound 22, (2S,4R)-1-((S)-2-(12-(4-(2-Fluoro-5-((4-oxo-3,4-dihydrophthalazin-1-yl)methyl)benzoyl)piperazin-1-yl)-12-oxododecanamido)-3,3-dimethylbutanoyl)-4-hydroxy-N-((S)-1-(4-(4-methylthiazol-5-yl)phenyl)ethyl)pyrrolidine-2-carboxamide] | – | 1.58 | 1.58
9 | Cc1ncsc1-c1ccc([C@H](C)NC(=O)[C@@H]2C[C@@H](O)CN2C(=O)[C@@H](NC(=O)CCCCCCC(=O)N2CCN(C(=O)c3cc(Cc4n[nH]c(=O)c5ccccc45)ccc3F)CC2)C(C)(C)C)cc1 [Compound 23, (2S,4R)-1-((S)-2-(8-(4-(2-Fluoro-5-((4-oxo-3,4-dihydrophthalazin-1-yl)methyl)benzoyl)piperazin-1-yl)-8-oxooctanamido)-3,3-dimethylbutanoyl)-4-hydroxy-N-((S)-1-(4-(4-methylthiazol-5-yl)phenyl)ethyl)pyrrolidine-2-carboxamide] | – | 1.52 | 1.52
10 | O=C(COc1cccc2c1C(=O)N(C1CCC(=O)NC1=O)C2=O)NCCOCCOCCOCCNC(=O)COc1c(-c2csc(N3CCOCC3)n2)ccc(F)c1F (stereo not shown) [Compound 28, 2-(2,3-Difluoro-6-(2-morpholinothiazol-4-yl)phenoxy)-N-(1-((2-(2,6-dioxopiperidin-3-yl)-1,3-dioxoisoindolin-4-yl)oxy)-2-oxo-6,9,12-trioxa-3-azatetradecan-14-yl)acetamide] | – | 1.11 | 1.11

The remaining lines, values ahead:

Row | half-life at 1 µM [1] [h] | half-life at 1 µM [2] [h] | half-life at 1 µM [3] [h] | Structure (SMILES)
11 | 0.303 | 0.303 | 0.303 | Cc1sc2c(c1C)C(c1ccc(Cl)cc1)=N[C@@H](CC(=O)NCCCCCCCCNC(=O)COc1cccc3c1C(=O)N(C1CCC(=O)NC1=O)C3=O)c1nnc(C)n1-2 (stereo partly shown) [Compound 2, dBet6, reference compound]
12 | – | 0.69 | 0.69 | O=C(COc1cccc2c1C(=O)N(C1CCC(=O)NC1=O)C2=O)NCCCCCCCCNC(=O)c1ccc2c(c1)nc(Nc1cccc(Cl)c1)c1ccncc12 (stereo not shown) [Compound 12, 5-((3-Chlorophenyl)amino)-N-(8-(2-((2-(2,6-dioxopiperidin-3-yl)-1,3-dioxoisoindolin-4-yl)oxy)acetamido)octyl)benzo[c][2,6]naphthyridine-8-carboxamide]
13 | – | 0.56 | 0.56 | O=C(COc1cccc2c1C(=O)N(C1CCC(=O)NC1=O)C2=O)NCCCCCCCCCCNC(=O)c1ccc2c(c1)nc(Nc1cccc(Cl)c1)c1ccncc12 (stereo not shown) [Compound 13, 5-((3-Chlorophenyl)amino)-N-(10-(2-((2-(2,6-dioxopiperidin-3-yl)-1,3-dioxoisoindolin-4-yl)oxy)acetamido)decyl)benzo[c][2,6]naphthyridine-8-carboxamide]
14 | – | 1.28 | 1.28 | O=C(COc1cccc2c1C(=O)N(C1CCC(=O)NC1=O)C2=O)NCCOCCOCCOCCNC(=O)c1ccc2c(c1)nc(Nc1cccc(Cl)c1)c1ccncc12 (stereo not shown) [Compound 14, 5-((3-Chlorophenyl)amino)-N-(1-((2-(2,6-dioxopiperidin-3-yl)-1,3-dioxoisoindolin-4-yl)oxy)-2-oxo-6,9,12-trioxa-3-azatetradecan-14-yl)benzo[c][2,6]naphthyridine-8-carboxamide]
15 | – | 0.578 | 0.578 | O=C1CCC(N2C(=O)c3cccc(NCCCCCCNC(=O)c4ccc5c(c4)nc(Nc4cccc(Cl)c4)c4ccncc45)c3C2=O)C(=O)N1 (stereo not shown) [Compound 16, 5-((3-Chlorophenyl)amino)-N-(6-((2-(2,6-dioxopiperidin-3-yl)-1,3-dioxoisoindolin-4-yl)amino)hexyl)benzo[c][2,6]naphthyridine-8-carboxamide]
16 | 3.4 | 3.4 | 3.4 | Cc1ncsc1-c1ccc([C@H](C)NC(=O)[C@@H]2C[C@@H](O)CN2C(=O)[C@@H](NC(=O)CCCCNC(=O)c2ccc3c(c2)nc(Nc2cccc(Cl)c2)c2ccncc23)C(C)(C)C)cc1 [Compound 17, 5-((3-Chlorophenyl)amino)-N-(5-(((S)-1-((2S,4R)-4-hydroxy-2-(((S)-1-(4-(4-methylthiazol-5-yl)phenyl)ethyl)carbamoyl)pyrrolidin-1-yl)-3,3-dimethyl-1-oxobutan-2-yl)amino)-5-oxopentyl)benzo[c][2,6]naphthyridine-8-carboxamide]
17 | 3.48 | 3.48 | 3.48 | Cc1ncsc1-c1ccc([C@H](C)NC(=O)[C@@H]2C[C@@H](O)CN2C(=O)[C@@H](NC(=O)CCCCCCNC(=O)c2ccc3c(c2)nc(Nc2cccc(Cl)c2)c2ccncc23)C(C)(C)C)cc1 [Compound 18, 5-((3-Chlorophenyl)amino)-N-(7-(((S)-1-((2S,4R)-4-hydroxy-2-(((S)-1-(4-(4-methylthiazol-5-yl)phenyl)ethyl)carbamoyl)pyrrolidin-1-yl)-3,3-dimethyl-1-oxobutan-2-yl)amino)-7-oxoheptyl)benzo[c][2,6]naphthyridine-8-carboxamide]
18 | – | 2.65 | 2.65 | Cc1ncsc1-c1ccc([C@H](C)NC(=O)[C@@H]2C[C@@H](O)CN2C(=O)[C@@H](NC(=O)COCCCNC(=O)c2ccc3c(c2)nc(Nc2cccc(Cl)c2)c2ccncc23)C(C)(C)C)cc1 [Compound 19, 5-((3-Chlorophenyl)amino)-N-(3-(2-(((S)-1-((2S,4R)-4-hydroxy-2-(((S)-1-(4-(4-methylthiazol-5-yl)phenyl)ethyl)carbamoyl)pyrrolidin-1-yl)-3,3-dimethyl-1-oxobutan-2-yl)amino)-2-oxoethoxy)propyl)benzo[c][2,6]naphthyridine-8-carboxamide]
19 | – | 0.262 | 0.262 | O=C1CCC(N2C(=O)c3cccc(NCCCCCCCCCCC(=O)N4CCN(C(=O)c5cc(Cc6n[nH]c(=O)c7ccccc67)ccc5F)CC4)c3C2=O)C(=O)N1 (stereo not shown) [Compound 21, 2-(2,6-Dioxopiperidin-3-yl)-4-((11-(4-(2-fluoro-5-((4-oxo-3,4-dihydrophthalazin-1-yl)methyl)benzoyl)piperazin-1-yl)-11-oxoundecyl)amino)isoindoline-1,3-dione]
